# Assays:
# Assay type in all cases: cell-based
# ZFP91 = target: T1, ZFP91 (Homo sapiens, UniProt Q96JP5); test: Selectivity determination by Western Blot assay in MM1S cells: ZFP91; set-up: key: A represents a no degradation observed at 30 μM; B represents trace degradation at 30 μM (below 20%); C represents weak degradation at 30 μM (below 50%); D represents degradation at 30 μM (>90%); E represents degradation at 3 μM (>90%); F represents degradation at 0.3 μM (>90%); settings: MM1S cells, 0.3, 3 and 30 μM, 6 hours
# T1 construct: MM1S cells were purchased from ATCC (cat. Number CRL-2974); endogenous in cells; host or cells: MM1S (ATCC CRL-2974)
# T1 sequence (Q96SW2 whole entry partner): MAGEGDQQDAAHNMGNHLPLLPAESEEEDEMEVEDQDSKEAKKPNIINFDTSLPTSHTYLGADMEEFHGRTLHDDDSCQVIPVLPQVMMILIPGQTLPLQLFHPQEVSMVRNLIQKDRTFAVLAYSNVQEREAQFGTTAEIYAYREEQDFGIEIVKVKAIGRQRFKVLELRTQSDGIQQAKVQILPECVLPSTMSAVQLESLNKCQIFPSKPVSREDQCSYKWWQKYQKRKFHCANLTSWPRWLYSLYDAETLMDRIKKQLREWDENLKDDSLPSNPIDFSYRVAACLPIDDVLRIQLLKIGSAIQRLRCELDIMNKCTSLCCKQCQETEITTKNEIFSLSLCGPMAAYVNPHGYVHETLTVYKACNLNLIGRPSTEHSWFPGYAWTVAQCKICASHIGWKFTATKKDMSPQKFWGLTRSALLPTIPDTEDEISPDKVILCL
# T1 sequence (Q16531 2-1140 partner limits assumed): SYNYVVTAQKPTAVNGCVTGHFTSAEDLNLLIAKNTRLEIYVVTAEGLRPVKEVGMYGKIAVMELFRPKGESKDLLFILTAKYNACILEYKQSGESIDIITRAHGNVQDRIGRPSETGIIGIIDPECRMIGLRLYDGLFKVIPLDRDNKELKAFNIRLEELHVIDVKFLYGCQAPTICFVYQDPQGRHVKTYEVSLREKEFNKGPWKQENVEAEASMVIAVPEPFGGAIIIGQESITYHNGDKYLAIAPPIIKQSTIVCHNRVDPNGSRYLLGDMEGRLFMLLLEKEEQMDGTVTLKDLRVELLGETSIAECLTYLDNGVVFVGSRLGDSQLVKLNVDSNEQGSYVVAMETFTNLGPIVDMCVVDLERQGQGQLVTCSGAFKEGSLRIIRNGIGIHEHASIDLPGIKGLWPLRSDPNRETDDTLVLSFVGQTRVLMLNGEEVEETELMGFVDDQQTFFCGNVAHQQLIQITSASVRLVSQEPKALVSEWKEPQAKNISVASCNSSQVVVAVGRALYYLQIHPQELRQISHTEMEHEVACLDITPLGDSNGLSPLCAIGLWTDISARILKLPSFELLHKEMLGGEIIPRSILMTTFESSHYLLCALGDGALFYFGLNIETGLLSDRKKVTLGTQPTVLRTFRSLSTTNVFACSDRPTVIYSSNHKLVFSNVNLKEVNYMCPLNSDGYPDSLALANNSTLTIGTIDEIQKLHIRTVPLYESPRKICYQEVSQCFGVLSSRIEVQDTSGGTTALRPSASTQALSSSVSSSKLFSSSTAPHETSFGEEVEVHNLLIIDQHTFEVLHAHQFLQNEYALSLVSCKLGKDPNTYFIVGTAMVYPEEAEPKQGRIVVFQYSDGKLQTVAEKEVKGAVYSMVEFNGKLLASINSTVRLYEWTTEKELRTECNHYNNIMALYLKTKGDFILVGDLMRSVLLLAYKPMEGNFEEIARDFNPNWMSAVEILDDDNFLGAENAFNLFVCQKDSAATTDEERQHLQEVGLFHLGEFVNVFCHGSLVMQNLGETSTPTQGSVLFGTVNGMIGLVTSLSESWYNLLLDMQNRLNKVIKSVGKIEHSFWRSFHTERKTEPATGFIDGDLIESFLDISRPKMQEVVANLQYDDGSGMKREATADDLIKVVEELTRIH
# T1 sequence (Q96JP5 2-570 limits assumed): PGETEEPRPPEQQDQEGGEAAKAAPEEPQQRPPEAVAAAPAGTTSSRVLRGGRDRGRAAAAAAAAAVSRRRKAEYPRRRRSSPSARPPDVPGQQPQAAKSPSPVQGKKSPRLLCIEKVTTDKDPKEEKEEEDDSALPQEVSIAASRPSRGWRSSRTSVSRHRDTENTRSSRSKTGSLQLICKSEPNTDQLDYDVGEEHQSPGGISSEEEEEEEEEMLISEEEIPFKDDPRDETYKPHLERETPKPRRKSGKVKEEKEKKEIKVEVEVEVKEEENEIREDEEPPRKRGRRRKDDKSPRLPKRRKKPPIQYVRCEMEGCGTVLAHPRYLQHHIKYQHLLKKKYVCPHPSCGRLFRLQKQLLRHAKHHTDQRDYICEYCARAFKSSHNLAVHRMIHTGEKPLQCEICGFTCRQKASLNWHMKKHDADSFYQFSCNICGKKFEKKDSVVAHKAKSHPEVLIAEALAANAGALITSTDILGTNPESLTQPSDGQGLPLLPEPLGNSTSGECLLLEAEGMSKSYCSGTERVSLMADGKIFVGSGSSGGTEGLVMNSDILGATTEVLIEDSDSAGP
# Description: (§1) CK1alpha/Ikaros/Aiolos/ZFP91 Selectivity determination by Western Blot Assay
# (§2) MM1S cells were purchased from ATCC (cat. Number CRL-2974), sub-cultured in 90% RPMI 1640 with 10% FBS, supplemented with 1× P/S and incubated at 37° C., 5% CO2. Compounds were stored as 10 mM DMSO stock. For the assay, MM1S cells (3 million cells/well) were plated in 6-well plates and incubated over night. Cells were treated with respective compounds using a serial dilution: 0.3 μM, 3 μM and 30 μM as well as a vehicle only (DMSO) control for 6 hours. Media with suspension cells was subsequently transferred to 15 mL conical tubes, wells rinsed twice with ice-cold PBS and merged with cell suspension in respective 15 mL conical tube. Cells were spinned down, supernatant aspirated, pellets resuspended in ice-cold PBS and transferred to microtubes. Cells were spinned down, supernatant aspirated and pellets resuspended in 120 μL RIPA lysis buffer supplemented with protease and phosphatase inhibitors. Cell lysates were incubated on ice for 20 minutes followed by centrifugation at >20,000×g for 5 mM. Supernatants were transferred to fresh microtubes and stored at −80° C. Total protein concentration was determined using a BCA assay with a BSA standard curve and concentration of all samples was adjusted to 1 mg/mL. 25 μL 4× LDS sample buffer supplemented with 100 mM DTT was added to 75 μL sample. Samples were centrifuged (8,000×g, 1 min) and incubated at 95° C. for […] followed by another centrifugation step (8,000×g, 1 mM). 20 μL of each sample was loaded on a 4-12% gel alongside a protein molecular weight marker. Gels were run in the presence of MOPS buffer at 80 Volts for […], followed by 120 Volts for 1.5 h and proteins subsequently transferred onto nitrocellulose membranes at 20 Volts for 7 mM using an iBlot2 Gel Transfer Device. Membranes were then cut horizontally into two pieces, covering 80-50 kDa and 50-25 kDa. Blocking the membranes was performed by gently shaking in 5% (w/v) skim milk in TSB-T for 1 hr at room temperature. All primary antibodies were used at a 1/1000 in 5% (w/v) BSA dissolved in TBST and incubated with membranes over night at 4° C. After three washes with 1× TBST for 5 mM, HRP-coupled secondary antibodies diluted in 5% (w/v) BSA/TBST (Goat Anti-Rb IgG, dil. 1/10,000; Goat Anti-Mouse IgG, dil. 1/5000) were added for 1 hr at room temperature. After three washes with 1× TBST (5 minutes each), membranes were incubated with ECL reagent for 1 mM at room temperature. Chemiluminescence signals were then detected using a LAS-4000 system with default settings and signals quantified using Image Studio Lite software (version 5.2). Membrane parts previously incubated with antibody against CK1alpha were stripped off antibodies by incubating with stripping buffer for 30 minutes followed by three washed with TBST (5 mM each), blocking with 5% (w/v) skim milk for 1 hr, and incubation with primary antibody against GAPDH overnight at 4° C. Subsequent washes, incubation with secondary antibody and signal acquisition were performed as described above.
# (§3) Table 5 assigns each compound a code indicating the ability for the degradation of IKZF1, IKZF3, CK1alpha and ZFP91: A, B, C, D, E or F. According to the code, A represents a no degradation observed at 30 μM, B represents trace degradation at 30 μM (below 20%), C represents weak degradation at 30 μM (below 50%), D represents degradation at 30 μM (>90%), E represents degradation at 3 μM (>90%) and F represents degradation at 0.3 μM (>90%).
# GSPT1 = GSPT1 (Homo sapiens, UniProt P15170+Q96SW2); test: Selectivity determination by Western Blot assay in MM1S cells: GSPT1; set-up: MM1S cells were purchased from ATCC (cat. Number CRL-2974); endogenous in cells; host or cells: MM1S (ATCC CRL-2974); settings: MM1S cells, 0.3, 3 and 30 μM, 6 hours
# GSPT1, sequence (P15170 whole entry): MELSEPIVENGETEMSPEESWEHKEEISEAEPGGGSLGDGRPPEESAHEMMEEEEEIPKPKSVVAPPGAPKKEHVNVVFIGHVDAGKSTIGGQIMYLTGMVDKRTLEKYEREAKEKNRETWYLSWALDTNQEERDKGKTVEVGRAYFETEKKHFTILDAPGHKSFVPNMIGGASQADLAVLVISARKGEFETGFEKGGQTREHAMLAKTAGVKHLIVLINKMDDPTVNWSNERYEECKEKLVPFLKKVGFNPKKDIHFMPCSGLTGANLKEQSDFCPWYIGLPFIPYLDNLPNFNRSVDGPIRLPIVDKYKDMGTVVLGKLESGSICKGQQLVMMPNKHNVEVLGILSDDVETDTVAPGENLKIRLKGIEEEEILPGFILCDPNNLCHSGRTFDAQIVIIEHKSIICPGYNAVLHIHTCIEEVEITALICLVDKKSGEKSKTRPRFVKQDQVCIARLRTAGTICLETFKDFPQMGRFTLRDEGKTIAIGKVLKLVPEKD
# GSPT1, sequence (Q96SW2 whole entry): as the sequence (Q96SW2 whole entry partner) above
# GSPT1, sequence (Q16531 2-1140 partner limits assumed): as the sequence (Q16531 2-1140 partner limits assumed) above
# Description: [Worded in the source for another target; this target is reported under the same test.] as §1, §2, §3
# IKZF3 = target: T2, IKZF3 (Homo sapiens, UniProt Q9UKT9); test: Selectivity determination by Western Blot assay in MM1S cells: IKZF3; set-up: key: A represents a no degradation observed at 30 μM; B represents trace degradation at 30 μM (below 20%); C represents weak degradation at 30 μM (below 50%); D represents degradation at 30 μM (>90%); E represents degradation at 3 μM (>90%); F represents degradation at 0.3 μM (>90%); settings: MM1S cells, 0.3, 3 and 30 μM, 6 hours
# T2 construct: MM1S cells were purchased from ATCC (cat. Number CRL-2974); endogenous in cells; host or cells: MM1S (ATCC CRL-2974)
# T2 sequence (Q96SW2 whole entry partner): as the sequence (Q96SW2 whole entry partner) above
# T2 sequence (Q16531 2-1140 partner limits assumed): as the sequence (Q16531 2-1140 partner limits assumed) above
# T2 sequence (Q9UKT9 whole entry): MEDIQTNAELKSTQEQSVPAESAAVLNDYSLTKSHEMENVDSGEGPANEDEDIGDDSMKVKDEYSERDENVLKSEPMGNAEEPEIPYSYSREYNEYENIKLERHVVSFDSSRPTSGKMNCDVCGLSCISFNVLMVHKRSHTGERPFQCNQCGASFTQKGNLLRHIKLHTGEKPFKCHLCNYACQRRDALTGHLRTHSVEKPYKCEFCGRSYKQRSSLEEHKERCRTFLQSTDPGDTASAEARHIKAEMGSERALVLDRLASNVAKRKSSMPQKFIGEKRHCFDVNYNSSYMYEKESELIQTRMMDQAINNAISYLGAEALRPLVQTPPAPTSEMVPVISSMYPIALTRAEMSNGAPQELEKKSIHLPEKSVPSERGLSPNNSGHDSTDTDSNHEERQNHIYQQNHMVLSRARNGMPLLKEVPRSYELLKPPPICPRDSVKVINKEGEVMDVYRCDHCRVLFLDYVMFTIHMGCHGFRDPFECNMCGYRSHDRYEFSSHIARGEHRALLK
# Description: as §1, §2, §3
# [1] = system: Human mammary epithelial cells (HMEC) engineered to express EGFP alone (non myc); test: 3D spheroid assay, non myc-HMEC (CellTiterGlo3D viability); settings: 120 h, 3D spheroids, 5 days with compound, read-out: Code: EC50 value in the non myc-HMEC assay
ZFP91 degradation code (ZFP91),IKZF3 degradation code (IKZF3),SMILES,GSPT1 degradation code (GSPT1),EC50 [1] [µM]
A,A,Cc1cc(C)c(NC(=O)NCc2ccc3c(c2)C(=O)N(C2CCC(=O)NC2=O)C3)cc1Cl (centres unmarked) [Compound 85],E (E represents degradation at 3 μM (>90%)),–
A,A,Cc1c(Cl)cc(NC(=O)NCc2ccc3c(c2)C(=O)N(C2CCC(=O)NC2=O)C3)cc1CN(C)C (centres unmarked) [Compound 75],E (E represents degradation at 3 μM (>90%)),> 10
A,A,Cc1ccc(NC(=O)NCc2ccc3c(c2)C(=O)N(C2CCC(=O)NC2=O)C3)c(Cl)c1Cl (centres unmarked) [Compound 87],E (E represents degradation at 3 μM (>90%)),–
A,A,Cc1c(Cl)cc(NC(=O)NCc2ccc3c(c2)C(=O)N(C2CCC(=O)NC2=O)C3)cc1CN1CCOCC1 (centres unmarked) [Compound 82],F (F represents degradation at 0.3 μM (>90%)),–

SMILES,ZFP91 degradation code (ZFP91),IKZF3 degradation code (IKZF3),GSPT1 degradation code (GSPT1),EC50 [1] [µM]
O=C1CCC(N2Cc3ccc(CNC(=O)Nc4cccc(CN5CCOCC5)c4)cc3C2=O)C(=O)N1 (centres unmarked) [Compound 105],B (B represents trace degradation at 30 μM (below 20%)),A,E (E represents degradation at 3 μM (>90%)),–
Cc1ccc(NC(=O)NCc2ccc3c(c2)C(=O)N(C2CCC(=O)NC2=O)C3)cc1Cl (centres unmarked) [Compound 8],B (B represents trace degradation at 30 μM (below 20%)),B (B represents trace degradation at 30 μM (below 20%)),F (F represents degradation at 0.3 μM (>90%)),> 10
Cc1c(Cl)cc(NC(=O)NCc2ccc3c(c2)C(=O)N(C2CCC(=O)NC2=O)C3)cc1CC1COCOC1 (centres unmarked) [Compound 132],C (C represents weak degradation at 30 μM (below 50%)),A,F (F represents degradation at 0.3 μM (>90%)),–
